Patent publication US20240226096A1, “TREATMENT OF MYELOPROLIFERATIVE DISEASES AND DISORDERS WITH INHIBITORS OF BET FAMILY BDII BROMODOMAIN” (POSEIDON INNOVATION 1, INC., priority 2022, published 2024)

Legend:
[1] = system: BaF3-EPOR-JAK2V617F cell line; assay: BaF3-JAK2(V617F)-EPOR cell line proliferation assay (CellTiter-Glo), combination study; format: cell-based; conditions: 96 hours, FIG. 1
Protocol: (§1) Test compounds are dissolved at 10 mM DMSO stock solution. Transfer 45 uL of stock solution to a 384 PP-plate. Perform 3 fold, 10-point dilution via transferring 15 uL compound into 30 μL DMSO by using TECAN (EVO200) liquid handler. The plates are spin at room temperature at 1,000 RPM for 1 minute and shake at a plate shaker for 2 minutes. Transfer Compound A and Compound B of diluted compound from compound source plate into the cell plate by using liquid handler Echo665. Harvest the cells from flask into cell culture medium and then count the cell number. Dilute the cells with culture medium to the desired density and 40 μL of cell suspension is added into 384-well plate contain compound. Low control is adding cell culture medium. The final seeding density for SET-2 and BaF3-EPOR-JAK2V617F cell lines are 2,000 cells/well and 1000 cells/well respectively. Cover the plates with lid and mix the plate on orbital shaker (700-900 rpm) for 1 min, transfer the plates into 37° C. 5% CO2 incubator for 4 days culture. After compound treatment for 96 hours, remove the plate from incubators and equilibrated at room temperature for 15 minutes. Add CellTiter-Glo reagent into each well.
(§2) Place the plate on an orbital shaker, and shake at 500-700 rpm to facilitate cell lysis and ATP extraction from the cells. Measure luminescence after 5-10 minutes using BMG.

[2] = system: SET-2 cell line; assay: SET-2 cell line proliferation assay (CellTiter-Glo), combination study; format: cell-based; conditions: 96 hours, FIG. 2
Protocol: as §1, §2

[3] = in combination with Ruxolitinib

Cn1ccn(-c2ccc(-c3cc(F)cc(-c4cccc(N5CCN(C(C)(C)C)CC5)c4)c3O)cc2Cl)c1=O [Compound I-1, 1-(3″-(4-(tert-butyl)piperazin-1-yl)-3-chloro-5′-fluoro-2′-hydroxy-[1,1′:3′,1″-terphenyl]-4-yl)-3-methyl-1,3-dihydro-2H-imidazol-2-one]
suppresses proliferation: proliferation of the BaF3-EPOR-JAK2V617F cell line ([1]; compound alone) | proliferation of the BaF3-EPOR-JAK2V617F cell line [1, 3] | proliferation of the SET-2 cell line ([2]; compound alone) | proliferation of the SET-2 cell line [2, 3]
